# PMC8258697 (The Journal of Biological Chemistry, 2021)
# System: PPARγ LBD
# Assay: Two-dimensional titration of SR11237 and unlabeled mutant RXRα LBD: CBP-1 recruitment by sGFP-PPARγ LBD (HTRF);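 as to HTRF mean; N=2: mutant RXRα LBD carries mutations that block its own coactivator recruitment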
# Assay type: biochemical, human
smiles,measurement,setting,value
CC1(C)CCC(C)(C)c2cc(C3(c4ccc(C(=O)O)cc4)OCCO3)ccc21 [SR11237],HTRF mean; N=2,"SR11237 0.268435 nM, RXRα mutant LBD 0.976562 nM",7866
same,HTRF mean; N=2,"SR11237 0.268435 nM, RXRα mutant LBD 1.95312 nM",7838
same,HTRF mean; N=2,"SR11237 0.268435 nM, RXRα mutant LBD 3.90625 nM",7920
same,HTRF mean; N=2,"SR11237 0.268435 nM, RXRα mutant LBD 7.8125 nM",7909
same,HTRF mean; N=2,"SR11237 0.268435 nM, RXRα mutant LBD 31.25 nM",7903
same,HTRF mean; N=2,"SR11237 0.268435 nM, RXRα mutant LBD 62.5 nM",8248
same,HTRF mean; N=2,"SR11237 0.268435 nM, RXRα mutant LBD 250 nM",8688
same,HTRF mean; N=2,"SR11237 0.268435 nM, RXRα mutant LBD 500 nM",8760
same,HTRF mean; N=2,"SR11237 0.268435 nM, RXRα mutant LBD 1000 nM",8782
same,HTRF mean; N=2,"SR11237 0.671089 nM, RXRα mutant LBD 0.976562 nM",8003
same,HTRF mean; N=2,"SR11237 0.671089 nM, RXRα mutant LBD 1.95312 nM",7881
same,HTRF mean; N=2,"SR11237 0.671089 nM, RXRα mutant LBD 3.90625 nM",7929
same,HTRF mean; N=2,"SR11237 0.671089 nM, RXRα mutant LBD 7.8125 nM",7967
same,HTRF mean; N=2,"SR11237 0.671089 nM, RXRα mutant LBD 31.25 nM",8123
same,HTRF mean; N=2,"SR11237 0.671089 nM, RXRα mutant LBD 62.5 nM",8262
same,HTRF mean; N=2,"SR11237 0.671089 nM, RXRα mutant LBD 250 nM",8624
same,HTRF mean; N=2,"SR11237 0.671089 nM, RXRα mutant LBD 500 nM",8662
same,HTRF mean; N=2,"SR11237 0.671089 nM, RXRα mutant LBD 1000 nM",8739
same,HTRF mean; N=2,"SR11237 1.67772 nM, RXRα mutant LBD 0.976562 nM",7886
same,HTRF mean; N=2,"SR11237 1.67772 nM, RXRα mutant LBD 1.95312 nM",7834
same,HTRF mean; N=2,"SR11237 1.67772 nM, RXRα mutant LBD 3.90625 nM",7842
same,HTRF mean; N=2,"SR11237 1.67772 nM, RXRα mutant LBD 7.8125 nM",7973
same,HTRF mean; N=2,"SR11237 1.67772 nM, RXRα mutant LBD 31.25 nM",8258
same,HTRF mean; N=2,"SR11237 1.67772 nM, RXRα mutant LBD 62.5 nM",8301
same,HTRF mean; N=2,"SR11237 1.67772 nM, RXRα mutant LBD 250 nM",8705
same,HTRF mean; N=2,"SR11237 1.67772 nM, RXRα mutant LBD 500 nM",8706
same,HTRF mean; N=2,"SR11237 1.67772 nM, RXRα mutant LBD 1000 nM",8875
same,HTRF mean; N=2,"SR11237 10.4858 nM, RXRα mutant LBD 0.976562 nM",7841
same,HTRF mean; N=2,"SR11237 10.4858 nM, RXRα mutant LBD 1.95312 nM",7813
same,HTRF mean; N=2,"SR11237 10.4858 nM, RXRα mutant LBD 3.90625 nM",7835
same,HTRF mean; N=2,"SR11237 10.4858 nM, RXRα mutant LBD 7.8125 nM",7963
same,HTRF mean; N=2,"SR11237 10.4858 nM, RXRα mutant LBD 31.25 nM",8186
same,HTRF mean; N=2,"SR11237 10.4858 nM, RXRα mutant LBD 62.5 nM",8299
same,HTRF mean; N=2,"SR11237 10.4858 nM, RXRα mutant LBD 250 nM",8710
same,HTRF mean; N=2,"SR11237 10.4858 nM, RXRα mutant LBD 500 nM",8818
same,HTRF mean; N=2,"SR11237 10.4858 nM, RXRα mutant LBD 1000 nM",8916
same,HTRF mean; N=2,"SR11237 26.2144 nM, RXRα mutant LBD 0.976562 nM",7919
same,HTRF mean; N=2,"SR11237 26.2144 nM, RXRα mutant LBD 1.95312 nM",7957
same,HTRF mean; N=2,"SR11237 163.84 nM, RXRα mutant LBD 0.976562 nM",7969
same,HTRF mean; N=2,"SR11237 163.84 nM, RXRα mutant LBD 1.95312 nM",7882
same,HTRF mean; N=2,"SR11237 163.84 nM, RXRα mutant LBD 3.90625 nM",7848
same,HTRF mean; N=2,"SR11237 163.84 nM, RXRα mutant LBD 7.8125 nM",7981
same,HTRF mean; N=2,"SR11237 163.84 nM, RXRα mutant LBD 31.25 nM",8037
same,HTRF mean; N=2,"SR11237 163.84 nM, RXRα mutant LBD 62.5 nM",8496
same,HTRF mean; N=2,"SR11237 163.84 nM, RXRα mutant LBD 250 nM",9360
same,HTRF mean; N=2,"SR11237 163.84 nM, RXRα mutant LBD 500 nM",9174
same,HTRF mean; N=2,"SR11237 163.84 nM, RXRα mutant LBD 1000 nM",9009
same,HTRF mean; N=2,"SR11237 1024 nM, RXRα mutant LBD 1.95312 nM",7904
same,HTRF mean; N=2,"SR11237 1024 nM, RXRα mutant LBD 3.90625 nM",7933
same,HTRF mean; N=2,"SR11237 1024 nM, RXRα mutant LBD 7.8125 nM",8096
same,HTRF mean; N=2,"SR11237 1024 nM, RXRα mutant LBD 31.25 nM",8413
same,HTRF mean; N=2,"SR11237 1024 nM, RXRα mutant LBD 62.5 nM",8597
same,HTRF mean; N=2,"SR11237 1024 nM, RXRα mutant LBD 250 nM",9475
same,HTRF mean; N=2,"SR11237 1024 nM, RXRα mutant LBD 500 nM",9672
same,HTRF mean; N=2,"SR11237 1024 nM, RXRα mutant LBD 1000 nM",9907
same,HTRF mean; N=2,"SR11237 16000 nM, RXRα mutant LBD 0.976562 nM",8373
same,HTRF mean; N=2,"SR11237 16000 nM, RXRα mutant LBD 1.95312 nM",8383
same,HTRF mean; N=2,"SR11237 16000 nM, RXRα mutant LBD 3.90625 nM",8482
same,HTRF mean; N=2,"SR11237 16000 nM, RXRα mutant LBD 7.8125 nM",8492
same,HTRF mean; N=2,"SR11237 16000 nM, RXRα mutant LBD 31.25 nM",8658
same,HTRF mean; N=2,"SR11237 16000 nM, RXRα mutant LBD 62.5 nM",9133
same,HTRF mean; N=2,"SR11237 16000 nM, RXRα mutant LBD 250 nM",9981
same,HTRF mean; N=2,"SR11237 16000 nM, RXRα mutant LBD 500 nM",10090
same,HTRF mean; N=2,"SR11237 16000 nM, RXRα mutant LBD 1000 nM",10256
same,HTRF mean; N=2,"SR11237 100000 nM, RXRα mutant LBD 0.976562 nM",8525
same,HTRF mean; N=2,"SR11237 100000 nM, RXRα mutant LBD 1.95312 nM",8620
same,HTRF mean; N=2,"SR11237 100000 nM, RXRα mutant LBD 3.90625 nM",8706
same,HTRF mean; N=2,"SR11237 100000 nM, RXRα mutant LBD 7.8125 nM",8679
same,HTRF mean; N=2,"SR11237 100000 nM, RXRα mutant LBD 31.25 nM",8875
same,HTRF mean; N=2,"SR11237 100000 nM, RXRα mutant LBD 62.5 nM",9423
same,HTRF mean; N=2,"SR11237 100000 nM, RXRα mutant LBD 250 nM",9880
same,HTRF mean; N=2,"SR11237 100000 nM, RXRα mutant LBD 500 nM",10045
same,HTRF mean; N=2,"SR11237 100000 nM, RXRα mutant LBD 1000 nM",9921
same,HTRF mean; N=2,"SR11237 […], RXRα mutant LBD 0.976562 nM",8114
same,HTRF mean; N=2,"SR11237 […], RXRα mutant LBD 1.95312 nM",8140
same,HTRF mean; N=2,"SR11237 […], RXRα mutant LBD 3.90625 nM",8154
same,HTRF mean; N=2,"SR11237 […], RXRα mutant LBD 7.8125 nM",8229
same,HTRF mean; N=2,"SR11237 […], RXRα mutant LBD 31.25 nM",8421
same,HTRF mean; N=2,"SR11237 […], RXRα mutant LBD 62.5 nM",8922
same,HTRF mean; N=2,"SR11237 […], RXRα mutant LBD 250 nM",9616
same,HTRF mean; N=2,"SR11237 […], RXRα mutant LBD 500 nM",9926
same,HTRF mean; N=2,"SR11237 […], RXRα mutant LBD 1000 nM",9869
same,CBP-1 recruitment relative to that seen with rosiglitazone,other factor (RXRα or SR11237) present at ≤1 nM,≤ 5%
